According to the supplement of paper PMC13380429:

Tests used:
Conditions in all cases: 72 h
Caco-2 [1] = assay: cell viability relative to DMSO; higher = less toxic
Calu-3 [2] = assay: as above
HepG2 [3] = assay: as above
U2OS [4] = assay: as above
Vero E6 [5] = assay: as above
Caco-2 [6] = assay: relative viability EC50 (midpoint between 100% and the lowest measured viability); higher = less toxic
Calu-3 [7] = assay: as above
HepG2 [8] = assay: as above
U2OS [9] = assay: as above
Vero E6 [10] = assay: as above
Caco-2 [11] = assay: drug sensitivity score (DSS) for viability; higher = more toxic; extreme values may be limits of the assay
Calu-3 [12] = assay: as above
HepG2 [13] = assay: as above
U2OS [14] = assay: as above
Vero E6 [15] = assay: as above

Compound	cell viability (Caco-2 [1]; 1 nM) [%]	cell viability (Caco-2 [1]; 10 nM) [%]	cell viability (Caco-2 [1]; 100 nM) [%]	cell viability (Caco-2 [1]; 1000 nM) [%]	cell viability (Caco-2 [1]; 10000 nM) [%]	cell viability (Calu-3 [2]; 1 nM) [%]	cell viability (Calu-3 [2]; 10 nM) [%]	cell viability (Calu-3 [2]; 100 nM) [%]	cell viability (Calu-3 [2]; 1000 nM) [%]	cell viability (Calu-3 [2]; 10000 nM) [%]	cell viability (HepG2 [3]; 1 nM) [%]	cell viability (HepG2 [3]; 10 nM) [%]	cell viability (HepG2 [3]; 100 nM) [%]	cell viability (HepG2 [3]; 1000 nM) [%]	cell viability (HepG2 [3]; 10000 nM) [%]	cell viability (U2OS [4]; 1 nM) [%]	cell viability (U2OS [4]; 10 nM) [%]	cell viability (U2OS [4]; 100 nM) [%]	cell viability (U2OS [4]; 1000 nM) [%]	cell viability (U2OS [4]; 10000 nM) [%]	cell viability (Vero E6 [5]; 1 nM) [%]	cell viability (Vero E6 [5]; 10 nM) [%]	cell viability (Vero E6 [5]; 100 nM) [%]	cell viability (Vero E6 [5]; 1000 nM) [%]	cell viability (Vero E6 [5]; 10000 nM) [%]	relative viability EC50 (Caco-2 [6]) [µM]	relative viability EC50 (Calu-3 [7]) [µM]	relative viability EC50 (HepG2 [8]) [µM]	relative viability EC50 (U2OS [9]) [µM]	relative viability EC50 (Vero E6 [10]) [µM]	drug sensitivity score (Caco-2 [11])	drug sensitivity score (Calu-3 [12])	drug sensitivity score (HepG2 [13])	drug sensitivity score (U2OS [14])	drug sensitivity score (Vero E6 [15])
CC[N+](CC)(CC)CC(=O)Nc1c(C)cccc1C [QX-314]	91.8	93.4	97	102	95.6	102	93.6	89.1	96.9	89.2	95.3	104	92.6	94.4	95.7	103	96.9	102	95.7	101	95.9	99.2	93.7	97.8	93.6	> 10	> 10	> 10	> 10	> 10	0	0	0	0	0
CC1(C)CC(=O)c2c(C(F)(F)F)nn(-c3ccc(C(N)=O)c(N[C@H]4CC[C@H](OC(=O)CN)CC4)c3)c2C1 [SNX-5422]	90.2	95.8	85.4	37.3	35.2	85.3	93.9	80.9	40.5	38.7	101	92.9	15.8	0.9	1.9	92	105	68.9	3.4	3.4	95.6	94	97.5	47.3	25.8	0.189	0.161	0.0395	0.135	0.612	13.5	13.1	28.8	21.9	10.6
O=C(Nc1ccccc1-c1cn2c(CN3CCNCC3)csc2n1)c1cnc2ccccc2n1 [SRT1720]	88.6	93.3	99.7	98.4	5.4	102	101	103	102	0.9	94	94.4	102	91.6	0.3	102	99.7	98.1	102	0.2	98.2	97.7	97.7	94.3	0.1	3.05	3.3	2.47	3.3	2.72	5.5	5.3	6.9	5.4	6.4
N#Cc1c(N(CC(=O)O)CC(=O)O)sc(C(=O)O)c1CC(=O)O [Strontium Ranelate]	93	102	93.6	106	91.2	106	87.9	98.7	104	104	93.7	94.9	103	100	108	97.3	102	100	101	96.7	96.7	101	100	97.6	99.8	> 10	> 10	> 10	> 10	> 10	0	0	0	0	0
CCOc1cncc(/C=C/CCNC)c1 [TC2559]	97.9	99.4	100	108	102	87.6	98.9	98.2	95.9	109	100	93.1	110	96.7	117	101	102	97	101	104	94.1	94.5	89.2	90.2	110	> 10	> 10	> 10	> 10	> 10	0	0	0	0	0
CC(C)(C)c1ccc(C(=O)Nc2cn3cc(-n4ccnc4)ccc3n2)cc1 [TC-ASK-10]	96.1	101	99.3	109	81.8	97.9	95.6	105	105	93.9	87.1	102	98.4	104	77.2	96.4	97.3	99.5	98.8	91.6	93.2	103	93.8	95.5	99.1	> 10	> 10	> 10	> 10	> 10	0.2	0	0.6	0	0
CC(C)c1c(NC(=O)Nc2ccc(Cl)cc2)c(=O)n(-c2ccccc2)n1C [TC-FPR-43]	98.8	105	102	98.6	99.2	106	102	100	105	96.5	90.9	105	101	94.3	94.5	97.1	103	99.3	107	93.2	96.7	96.8	94.2	96.9	92.4	> 10	> 10	> 10	> 10	> 10	0	0	0	0	0
